Like-named read-outs stand apart in the source and are kept apart here.
Experiments:
Assay type in all cases: biochemical
[1] = target: T1, puromycin-sensitive aminopeptidase (APP-S) (Homo sapiens, UniProt P55786); assay: chromogenic hydrolysis kinetics at […] nm with purified recombinant enzyme
[2] = target: T1, puromycin-sensitive aminopeptidase (APP-S); assay: inhibition of purified recombinant APP-S hydrolysis of Ala-pNA/Val-pNA
[3] = target: T1, puromycin-sensitive aminopeptidase (APP-S)

T1 sequence (P55786 whole entry): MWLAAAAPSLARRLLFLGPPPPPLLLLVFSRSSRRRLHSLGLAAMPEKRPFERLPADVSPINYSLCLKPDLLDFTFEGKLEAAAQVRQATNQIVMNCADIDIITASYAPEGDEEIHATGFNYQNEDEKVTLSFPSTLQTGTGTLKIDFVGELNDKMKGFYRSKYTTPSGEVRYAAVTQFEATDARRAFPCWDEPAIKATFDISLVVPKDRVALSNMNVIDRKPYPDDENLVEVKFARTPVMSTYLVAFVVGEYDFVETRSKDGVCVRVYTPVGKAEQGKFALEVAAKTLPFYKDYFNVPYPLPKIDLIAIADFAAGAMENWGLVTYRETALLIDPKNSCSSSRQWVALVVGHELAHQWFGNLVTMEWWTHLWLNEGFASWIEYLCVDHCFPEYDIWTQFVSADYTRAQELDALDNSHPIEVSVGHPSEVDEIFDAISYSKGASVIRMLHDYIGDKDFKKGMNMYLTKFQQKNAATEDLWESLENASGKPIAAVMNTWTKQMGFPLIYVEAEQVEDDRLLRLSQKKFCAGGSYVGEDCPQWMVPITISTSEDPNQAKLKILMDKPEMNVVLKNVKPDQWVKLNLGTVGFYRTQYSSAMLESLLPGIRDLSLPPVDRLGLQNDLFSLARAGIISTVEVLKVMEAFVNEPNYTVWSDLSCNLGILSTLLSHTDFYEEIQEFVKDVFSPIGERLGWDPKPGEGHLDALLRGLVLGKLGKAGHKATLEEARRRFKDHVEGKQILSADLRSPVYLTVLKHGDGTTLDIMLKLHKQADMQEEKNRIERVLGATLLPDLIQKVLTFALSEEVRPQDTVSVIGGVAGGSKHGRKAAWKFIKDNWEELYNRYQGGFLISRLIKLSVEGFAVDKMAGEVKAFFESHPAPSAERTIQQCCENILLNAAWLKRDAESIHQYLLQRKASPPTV

Km [1] | Compound | other results
510 ± 140 µM | C[C@H](N)C(=O)Nc1ccc([N+](=O)[O-])cc1 [Ala-pNA] | 
280 ± 190 µM | CC(C)[C@H](N)C(=O)Nc1ccc([N+](=O)[O-])cc1 [Val-pNA] | 
 | CC(C)C[C@H](NC(=O)[C@@H](O)[C@H](N)Cc1ccccc1)C(=O)O [bestatin] | inhibition of purified recombinant APP-S hydrolysis of Ala-pNA/Val-pNA (405 nm) [2]: APP-S hydrolysis of the model substrates was completely inhibited by the addition of bestatin.
 | COC(=O)[C@H](CO[P@@]1(=O)COC(Cn2ccc(N)nc2=O)CO1)NC(=O)[C@@H](N)C(C)C (stereo partly drawn) [compound 2, Methyl (S)-2-((S)-2-Amino-3-methyl-butyrylamino)-3-[(S)-5-(4-amino-2-oxo-2H-pyrimidin-1-ylmethyl)-2-oxido-1,4,2-dioxaphosphinan-2-yloxy]propanoate] | Km [3]: 850 ± 330 µM
